Assay: xn = mol fraction of the nth substance listed

ClC(Cl)=C(Cl)Cl + CCCCOCCO
viscosity [mPa·s], 101.33 kPa
Conditions | x1 = 0.1139 | x1 = 0.2084 | x1 = 0.3166 | x1 = 0.4172 | x1 = 0.5191 | x1 = 0.6215 | x1 = 0.7098 | x1 = 0.8124 | x1 = 0.9087
303.15 K | 2.167 | 1.954 | 1.716 | 1.51 | 1.327 | 1.17 | 1.049 | 0.939 | 0.854
313.15 K | 1.689 | 1.543 | 1.381 | 1.24 | 1.113 | 0.998 | 0.913 | 0.831 | 0.771

CCOCCOCCO + CCCN
298.15 K, 101 kPa
Conditions | viscosity [mPa·s]
x1 = 0.0118 | 0.374
x1 = 0.0312 | 0.412
x1 = 0.0523 | 0.448
x1 = 0.0786 | 0.495
x1 = 0.099 | 0.533
x1 = 0.1259 | 0.59
x1 = 0.1728 | 0.701
x1 = 0.2037 | 0.789
x1 = 0.2298 | 0.868
x1 = 0.2646 | 0.986
x1 = 0.3048 | 1.133
x1 = 0.3392 | 1.272
x1 = 0.4055 | 1.566
x1 = 0.4419 | 1.745
x1 = 0.4758 | 1.917
x1 = 0.5112 | 2.092
x1 = 0.5558 | 2.317
x1 = 0.5903 | 2.488
x1 = 0.633 | 2.695
x1 = 0.6711 | 2.869
x1 = 0.7054 | 3.013
x1 = 0.7412 | 3.154
x1 = 0.7802 | 3.297
x1 = 0.8328 | 3.464
x1 = 0.8664 | 3.549
x1 = 0.8935 | 3.616
x1 = 0.9187 | 3.674
x1 = 0.9388 | 3.712
x1 = 0.9709 | 3.779

CCCCCCCC + CCCO
Conditions | viscosity [mPa·s]
293.15 K, 101.3 kPa, x2 = 0.2756 | 0.602
293.15 K, 101.3 kPa, x2 = 0.4165 | 0.699
293.15 K, 101.3 kPa, x2 = 0.5351 | 0.825
293.15 K, 101.3 kPa, x2 = 0.6355 | 0.967
293.15 K, 101.3 kPa, x2 = 0.6822 | 1.039
293.15 K, 101.3 kPa, x2 = 0.7221 | 1.128
293.15 K, 101.3 kPa, x2 = 0.7934 | 1.295
293.15 K, 101.3 kPa, x2 = 0.8726 | 1.545
293.15 K, 101.3 kPa, x2 = 0.9243 | 1.746
293.15 K, 101.3 kPa, x2 = 0.9752 | 2.003
298.15 K, 101.3 kPa, x2 = 0.114 | 0.511
298.15 K, 101.3 kPa, x2 = 0.2756 | 0.561
298.15 K, 101.3 kPa, x2 = 0.4165 | 0.645
298.15 K, 101.3 kPa, x2 = 0.5351 | 0.752
298.15 K, 101.3 kPa, x2 = 0.6356 | 0.875
298.15 K, 101.3 kPa, x2 = 0.6823 | 0.939
298.15 K, 101.3 kPa, x2 = 0.7221 | 1.016
298.15 K, 101.3 kPa, x2 = 0.7934 | 1.162
298.15 K, 101.3 kPa, x2 = 0.8726 | 1.403
298.15 K, 101.3 kPa, x2 = 0.9243 | 1.554
298.15 K, 101.3 kPa, x2 = 0.9752 | 1.79
298.15 K, 101.33 kPa, x2 = 0.1018 | 0.535
298.15 K, 101.33 kPa, x2 = 0.1778 | 0.558
298.15 K, 101.33 kPa, x2 = 0.3151 | 0.617
298.15 K, 101.33 kPa, x2 = 0.4271 | 0.696
298.15 K, 101.33 kPa, x2 = 0.5512 | 0.809
298.15 K, 101.33 kPa, x2 = 0.6801 | 0.987
298.15 K, 101.33 kPa, x2 = 0.7955 | 1.227
298.15 K, 101.33 kPa, x2 = 0.9677 | 1.824
303.15 K, 101.3 kPa, x2 = 0.114 | 0.482
303.15 K, 101.3 kPa, x2 = 0.2756 | 0.522
303.15 K, 101.3 kPa, x2 = 0.4165 | 0.592
303.15 K, 101.3 kPa, x2 = 0.5351 | 0.686
303.15 K, 101.3 kPa, x2 = 0.6355 | 0.795
303.15 K, 101.3 kPa, x2 = 0.6822 | 0.857
303.15 K, 101.3 kPa, x2 = 0.7221 | 0.917
303.15 K, 101.3 kPa, x2 = 0.7934 | 1.045
303.15 K, 101.3 kPa, x2 = 0.8726 | 1.227
303.15 K, 101.3 kPa, x2 = 0.9243 | 1.383
303.15 K, 101.3 kPa, x2 = 0.9752 | 1.579
308.15 K, 101.3 kPa, x2 = 0.0417 | 0.458
308.15 K, 101.3 kPa, x2 = 0.1389 | 0.466
308.15 K, 101.3 kPa, x2 = 0.2682 | 0.497
308.15 K, 101.3 kPa, x2 = 0.3477 | 0.528
308.15 K, 101.3 kPa, x2 = 0.4105 | 0.558
308.15 K, 101.3 kPa, x2 = 0.4648 | 0.591
308.15 K, 101.3 kPa, x2 = 0.525 | 0.636
308.15 K, 101.3 kPa, x2 = 0.5911 | 0.694
308.15 K, 101.3 kPa, x2 = 0.6512 | 0.757
308.15 K, 101.3 kPa, x2 = 0.7011 | 0.818
308.15 K, 101.3 kPa, x2 = 0.7397 | 0.873
308.15 K, 101.3 kPa, x2 = 0.7864 | 0.95
308.15 K, 101.3 kPa, x2 = 0.8382 | 1.05
308.15 K, 101.3 kPa, x2 = 0.8827 | 1.153
308.15 K, 101.3 kPa, x2 = 0.9289 | 1.279

CCCCCO + CCCO
101.33 kPa
Conditions | viscosity [mPa·s]
293.15 K, x2 = 0.1659 | 3.671
293.15 K, x2 = 0.3648 | 3.292
293.15 K, x2 = 0.5097 | 3.015
293.15 K, x2 = 0.6041 | 2.854
293.15 K, x2 = 0.7449 | 2.617
298.15 K, x2 = 0.2007 | 3.137
298.15 K, x2 = 0.381 | 2.856
298.15 K, x2 = 0.4603 | 2.722
298.15 K, x2 = 0.6314 | 2.464
298.15 K, x2 = 0.7745 | 2.261
298.15 K, x2 = 0.8626 | 2.141

CCOCCOCCO + CCCO
viscosity [mPa·s], 101 kPa
Conditions | 298.15 K | 308.15 K | 318.15 K
x1 = 0.0114 | 1.94 | 1.509 | 1.233
x1 = 0.0195 | 1.939 | 1.508 | 1.233
x1 = 0.0356 | 1.947 | 1.516 | 1.248
x1 = 0.0469 | 1.955 | 1.517 | 1.249
x1 = 0.0557 | 1.95 | 1.526 | 1.259
x1 = 0.0883 | 1.972 | 1.546 | 1.277
x1 = 0.1002 | 1.992 | 1.558 | 1.281
x1 = 0.136 | 2.017 | 1.588 | 1.308
x1 = 0.1447 | 2.04 | 1.589 | 1.316
x1 = 0.168 | 2.051 | 1.617 | 1.341
x1 = 0.245 | 2.184 | 1.701 | 1.409
x1 = 0.2877 | 2.294 | 1.756 | 1.456
x1 = 0.3493 | 2.473 | 1.868 | 1.567
x1 = 0.411 | 2.616 | 1.984 | 1.657
x1 = 0.4745 | 2.761 | 2.1 | 1.752
x1 = 0.536 | 2.889 | 2.191 | 1.822
x1 = 0.6067 | 3.022 | 2.29 | 1.903
x1 = 0.6682 | 3.138 | 2.378 | 1.978
x1 = 0.7228 | 3.248 | 2.453 | 2.044
x1 = 0.7879 | 3.383 | 2.55 | 2.118
x1 = 0.8412 | 3.494 | 2.622 | 2.178
x1 = 0.894 | 3.6 | 2.695 | 2.238
x1 = 0.9378 | 3.694 | 2.76 | 2.281
x1 = 0.9751 | 3.755 | 2.813 | 2.324

O=[N+]([O-])c1ccccc1 + CCCO
viscosity [mPa·s], 101.33 kPa
Conditions | x1 = 0.0517 | x1 = 0.1088 | x1 = 0.173 | x1 = 0.2456 | x1 = 0.3276 | x1 = 0.4224 | x1 = 0.5322 | x1 = 0.6613 | x1 = 0.8145
298.15 K | 1.815 | 1.725 | 1.606 | 1.56 | 1.511 | 1.49 | 1.478 | 1.494 | 1.55
303.15 K | 1.613 | 1.558 | 1.455 | 1.394 | 1.402 | 1.363 | 1.341 | 1.352 | 1.431

CCCCCCCCCCCCCC + CCCOC(C)=O
298.15 K, 101.33 kPa
Conditions | viscosity [mPa·s]
x1 = 0.066 | 0.605
x1 = 0.0941 | 0.632
x1 = 0.1299 | 0.673
x1 = 0.1877 | 0.734
x1 = 0.2573 | 0.815
x1 = 0.3129 | 0.88
x1 = 0.4379 | 1.045
x1 = 0.5495 | 1.204
x1 = 0.6576 | 1.369
x1 = 0.8073 | 1.631
x1 = 0.8924 | 1.814
